Test results reported in patent US20240124556A1, “KERATIN BD-3, PREPARATION METHOD THEREFOR AND PHARMACEUTICAL COMPOSITION AND USE THEREOF” (INSTITUTE OF MATERIA MEDICA, CHINESE ACADEMY OF MEDICAL …, priority 2019, published 2024).
Structures can show the parent of a compound that is named as a salt. Marks after values point to notes of the source that are not given here.

Assays:
[1] = tested on: PLO-induced epilepsy in mice; experiment: Pilocarpine (PLO) induced convulsive epilepsy in mice; assay type: in vivo, ICR mice; details: Diazepam 2 mg/kg
Description: • Animals: male ICR mice; • Drugs: Pilocarpine HCl (PLO, pilocarpine, pilocarpine hydrochloride), Diazepam (diazepam tablets), protein BD-3. • Experiment grouping: • Model group: • Diazepam 2 mg/kg group; • Protein BD-3, 50 mg/kg group, 200 mg/kg group.
The drug was administered once in the afternoon the day before modeling, PLO-225 mg/kg (modeling agent) was injected intraperitoneally 1 hour after the test drug was administered intragastrically on the day of modeling. And positive drug can be administered once 20 minutes before modeling. Observe for 30 minutes after PLO injection.
Observation indicators: (1)Seizure situation: the time of seizures from Grade II to Grade IV; (2)the time to death.
(§1) Seizure grade: Refer to Racine grading standard: Grade 0: No response; Grade I: manifested as twitching of facial muscles or the corners of the mouth; Grade II: can nod; Grade III: twitching of one limb; Grade IV: rigidity or body twitching; Grade V: generalized epilepsy (generalized tonic seizures).
Count the number of Grade IV seizures and deaths in each group of mice in the experiment; Grade II, III and IV incubation period. […] Chi-square test was used for statistics of the number of cases. The mean value and standard error of the incubation period were calculated, and TTEST was used to compare the model group with other groups. P<0.05 was considered as a significant difference.

[2] = tested on: acetic acid writhing in ICR mice; experiment: Acetic acid writhing in ICR mice; assay type: in vivo
Description: • Animals: male ICR mice; • Drugs and reagents: aspirin, physiological saline, glacial acetic acid, protein BD-3. • Experiment grouping: • Model group; • Aspirin 300 mg/kg group; • Protein BD-3, 50 mg/kg group, 200 mg/kg group.
One day after the experimental animals adapt to the environment, Aspirin 300 mg/kg, protein BD-3 50 mg/kg, 200 mg/kg were given orally one hour in advance, and the administration volume was 10 ml/kg; Then, 0.6% acetic acid solution was injected intraperitoneally, and the incubation period (seconds) and frequency of writhing in the animal was observed within 15 minutes.
Calculate the mean and standard error of the data in each group. Compared with the model group by TTEST, P<0.05 was considered as statistically different.

[3] = tested on: yeast-induced fever model in SD rats; experiment: Yeast-induced fever model of SD rats; assay type: in vivo
Description: (§2) • Animals: 230-260 grams of male SD rats; • Medicines: yeast (OXOID LP0021), aspirin (SIGMA A2093), protein BD-3; • Instruments: electronic balance (SARTORIUS BP121S type), electronic clinical thermometer (CITIZEN CT-513W type). • Experiment grouping: • Normal control group; • Model group: yeast fever model; • Positive control group: Aspirin 300 mg/kg group; • Protein BD-3, 10 mg/kg group, 50 mg/kg group. • Method:
(§3) Preparation of experimental animals: After the experimental animals adapt to the experimental environment (temperature 22° C.±2° C., relative humidity 50%±2%) for 1 day. Pre-adaptation to measure rectal temperature at 8:00 and 15:00, rats were fasted and water was taken freely 12 h before experiment, and let the animal to empty its feces before measuring the rectal temperature. Apply petroleum jelly to the electronic thermometer probe before each temperature measurement. Insert the rat rectum 2 cm (can be marked at 2 cm to ensure that the depth of each insertion is consistent), and record the body temperature after the reading is stable.
(§4) Subcutaneous injection of dry yeast to replicate rat fever model: The body temperature of the rats was measured before modeling. Qualified rats with a body temperature of 36.2-37.3° C. were selected and randomly divided into groups with 8 rats in each group. After oral administration of aspirin and different doses of protein BD-3, 20% yeast suspension (10 ml/kg) was injected subcutaneously immediately, and the normal control group was injected intraperitoneally with an equal volume of normal saline. The body temperatures of the rats were monitored after 2 hours for a total of 8 hours.
(§5) According to the body temperature measured at each time point on the day of the experiment, calculate the mean, standard deviation and standard error of the body temperature of each group of rats. The data of each group was compared with TTEST, and P<0.05 was considered as a significant difference.

[4] = tested on: lipopolysaccharide (LPS) induced fever model in SD rats; experiment: Lipopolysaccharide (LPS) induced fever in SD rats; assay type: in vivo
Description: as §2, with “Drugs: lipopolysaccharide (LPS, SIGMA L-2880),” for “Medicines: yeast (OXOID LP0021),”, “BD-3;” for “BD-3; •”, “lipopolysaccharide” for “yeast”, “Method: the method of intraperitoneal injection of Lipopolysaccharide to replicate rat fever model.” for “Method:”
as §3
as §4, with “Intraperitoneal” for “Subcutaneous”, “lipopolysaccharide” for “dry yeast”, “lipopolysaccharide (20 μg/kg, 2” for “20% yeast suspension (10”, “intraperitoneally” for “subcutaneously”
as §5

[5] = tested on: PTZ-induced epilepsy in mice; experiment: Pentylenetetrazole (PTZ)-induced epilepsy in mice; assay type: in vivo, ICR mice; details: Retigabine 60 mg/kg
Description: • Animals: male ICR mice; • Medicines: Pentylenetetrazol (PTZ), Retigabine, Protein BD-3. • Experiment grouping: • Model group; • Retigabine 60 mg/kg group; • Protein BD-3, 50 mg/kg group, 200 mg/kg group;
The drug was administered once in the afternoon the day before modeling, On the day of modeling, PTZ-65 mg/kg (modeling agent) was injected intraperitoneal 1 hour after the test drug was administered intragastrically, and the positive drug can be administered once half an hour before modeling. Continue to observe for 15 minutes after injection of PTZ.
Observation index: (1)Seizure situation: the time of seizures from Grade III to Grade VI; (2)Death situation
as §1
Count the cases of seizures and deaths in each group of mice in the experiment; Grade III and IV incubation period. The incubation period of mice that have not attacked to Grade IV is recorded as the maximum of 900 seconds. Chi-square test was used for statistics of the number of cases. Calculate the mean and standard error of the incubation period. Use TTEST to compare the model group with other groups, and P<0.05 is considered as a significant difference.

[6] = tested on: cough induced by ammonia water in mice; experiment: Antitussive test, cough induced by ammonia water in mice; assay type: in vivo, ICR mice
Description: • Animals: male ICR mice; • Drugs and reagents: dextromethorphan hydrobromide, ammonia water, 0.2% CMC-Na, protein BD-3; • Apparatus: Compressed nebulizer (403T type), balance (XS105DU type). • Experiment grouping: • Solvent control group; • Dextromethorphan 15 mg/kg group; • Protein BD-3, 20 mg/kg group, 50 mg/kg group.
Dextromethorphan and different doses of protein BD-3 (administration volume 10 ml/kg) were given orally in groups, and the solvent control group was given the same volume of distilled water. One hour later, mice were put into a sealed box and atomized 10% ammonia water for 10 seconds, and then observed and recorded the incubation period of cough in mice and the number of coughs in 2 minutes.
Record the time point of oral administration, the time point of atomization experiment, the incubation period of mice cough and the number of coughs within 2 minutes, respectively. The incubation period of cough refers to the number of seconds from the start of the atomization of ammonia to the occurrence of cough. The performance of coughing in mice is based on contraction of their abdominal muscles (breast contraction) and opening their mouths at the same time. Calculate the mean and standard error of each group of data, and use TTEST to compare the model group with other groups, and P<0.05 is considered as a significant difference.

[7] = aspirin 300 mg/kg oral, 20% yeast s.c., model group 37.7 ± 0.1
[8] = aspirin 300 mg/kg oral, LPS 20 μg/kg i.p., model group 37.8 ± 0.2

SMILES: CN1C(=O)CN=C(c2ccccc2)c2cc(Cl)ccc21 [Diazepam, reference compound]
- mortality rate ([1]; PLO 225 mg/kg i.p., model group 0): 0
- Grade IV seizure rate ([1]; PLO 225 mg/kg i.p., model group 80%): 0** %
- Grade IV seizure incubation period ([1]; mean ± SEM, maximum recorded 1800 seconds, model group 894 ± 164): 1800 ± 0 s
- Grade II seizure incubation period ([1]; mean ± SEM, model group 86 ± 5): 109 ± 8 s
- Grade III seizure incubation period ([1]; mean ± SEM, model group 142 ± 6): 182 ± 14 s
- Cases of Grade IV ([1]; of 10 mice, PLO 225 mg/kg i.p., 30 min observation, model group 8): 0**
- Cases of deaths ([1]; of 10 mice, PLO 225 mg/kg i.p., model group 0): 0

SMILES: CC(=O)Oc1ccccc1C(=O)O [aspirin, reference compound]
- Writhing incubation period and times of writhing vs model group (in words) ([2]; Aspirin 300 mg/kg, P<0.05): can significantly delay the incubation period of writhing and reduce the times of writhing
- Writhing incubation period ([2]; aspirin 300 mg/kg oral, 0.6% acetic acid i.p., model group 204.2 ± 19.6): 290.3 ± 37.0 s
- Frequency of writhing ([2]; aspirin 300 mg/kg oral, within 15 minutes, model group 33.3 ± 2.5): 15.2 ± 2.9 times
- Body temperature 2 hours after modeling ([3]; aspirin 300 mg/kg oral, 20% yeast s.c., model group 37.5 ± 0.1): 37.0 ± 0.1 °C
- Body temperature 8 hours after modeling ([3]; aspirin 300 mg/kg oral, 20% yeast s.c., model group 37.6 ± 0.1): 37.0 ± 0.1 °C
- Body temperature 4 hours after modeling [3, 7]: 37.0 ± 0.1 °C
- Body temperature 6 hours after modeling [3, 7]: 37.0 ± 0.1 °C
- Effect on body temperature of model rats (in words) ([3]; aspirin 300 mg/kg, at 4 hours, 6 hours, and 8 hours after modeling, P<0.05 vs model group): can effectively inhibit the increase in body temperature of model rats
- Body temperature 2 hours after modeling ([4]; aspirin 300 mg/kg oral, LPS 20 μg/kg i.p., model group 37.6 ± 0.1): 36.8 ± 0.1 °C
- Body temperature 4 hours after modeling ([4]; aspirin 300 mg/kg oral, LPS 20 μg/kg i.p., model group 37.8 ± 0.1): 36.9 ± 0.2 °C
- Body temperature 6 hours after modeling [4, 8]: 36.8 ± 0.2 °C
- Body temperature 8 hours after modeling [4, 8]: 36.9 ± 0.1 °C
- Effect on body temperature of model rats (in words) ([4]; aspirin 300 mg/kg, at 2, 4, 6 and 8 hours after modeling, P<0.05 vs model group): can effectively inhibit the increase in body temperature of model rats

SMILES: CCOC(=O)Nc1ccc(NCc2ccc(F)cc2)cc1N [Retigabine, reference compound]
- mortality rate ([5]; PTZ 65 mg/kg i.p., model group 10%): 0%
- Grade IV seizure rate ([5]; PTZ 65 mg/kg i.p., model group 90%): 20%**
- Grade IV seizure incubation period ([5]; mean ± SEM, maximum recorded 900 seconds, model group 185 ± 84): 745 ± 103 s
- Grade III seizure incubation period ([5]; mean ± SEM, model group 63 ± 6): 83 ± 7 s
- Cases of Grade IV ([5]; of 10 mice, PTZ 65 mg/kg i.p., 15 min observation, model group 9): 2**
- Cases of deaths ([5]; of 10 mice, PTZ 65 mg/kg i.p., model group 1): 0

SMILES: COc1ccc2c(c1)[C@]13CCCC[C@@H]1[C@H](C2)N(C)CC3 [Dextromethorphan, dextromethorphan hydrobromide, reference compound]
- Incubation period (cough) ([6]; Dextromethorphan 15 mg/kg oral, X ± SEM, solvent control 26.9 ± 2.3): 38.4 ± 4.5 s
- Number of coughs ([6]; Dextromethorphan 15 mg/kg oral, within 2 minutes, X ± SEM, solvent control 67.1 ± 5.7): 34.0 ± 2.9
- Cough incubation period and number of coughs vs solvent control (in words) ([6]; dextromethorphan 15 mg/kg, P<0.05): significant improvement in the incubation period and the number of coughs
